Results reported in patent US20060094790A1, “Use of sphingosine kinase activator as skin disease treating agent and method for treating skin diseases using the same” (priority 2004, published 2006).

Experiments:
[1] = molecular target: T1, sphingosine kinase (Mus musculus, UniProt Q8CI15); test: Activation of sphingosine kinase (C17-sphingosine-1-phosphate production, HPLC); assay type: cell-based; conditions: F9-12 cells, 24 hours, 50 μM compound, PMA 300 nM; for C17-SIP Production: non-treated control 51.72; for increase in production of sphingosine-1-phosphate: versus non-treated control
T1 construct: host or cells: F9-12 cells
Experimental: The following test for activation of sphingosine kinase was performed to determine whether the effects of the above compounds upon intracellular calcium signal transfer as described in Example 1 were caused by activation of sphingosine kinase.
F9-12 cells were treated with 300 nM of PMA ([…]) as positive control, and 50 μM of each of K6PC4 and K6PC-5 for 24 hours and collected. Then, activity of sphingosine kinase was measured as production of C17-sphingosine-1-phosphate based on 50 μg of protein. Sphingosine-1-phospate was extracted from the collected cells by the steps of: (1) treating with trypsin-EDTA, (2) centrifugal separation at 1,500 rpm for 10 minutes, and (3) washing with PBS, followed by freeze-drying. Then, PBS was added to the freeze-dried product and the resultant product was treated with ultrasonic waves to destroy cells. Sphingosine-1-phosphate was determined by HPLC, and OPA (o-phthalaldehyde) reagent and boric acid buffer were added to the extracted sample and the mixture was reacted at room temperature for 20 minutes. For the HPLC quantitive analysis, fluorescence intensity was measured at each wavelength of 340 nm and 455 nm with a solution in 90% acetonitrile, and a ratio to the internal standard was calculated.

[2] = test system: fibroblasts; test: Collagen synthesis in fibroblasts (PICP, collagen measuring kit); assay type: cell-based; conditions: 72 hours; for Amount of PICP produced in fibroblasts (average ± SEM): non-treated control 47.1 ± 9.7; for collagen synthesis increase as compared to the non-treated control: fibroblasts, 0.3 or 1.0 μg/ml (concentration not given)
Experimental: The following experiment was performed by using fibroblasts in order to evaluate the effect of sphingosine kinase activator upon collagen synthesis.
Each of K6PC4, K6PC-5, K6PC-7 and K6PC-9 was dissolved in DMSO at a concentration of 0.3 and 1.0 μg/ml. The solutions were used as samples and analyzed for collagen synthesis after incubation for 72 hours. 72 hours after the treatment of the sample, culture solution was discarded, cells were washed with serum-free DMEM three times, and cells were cultured again by using flesh serum-free DMEM. After incubation, supernatant in each well was combined and analyzed for the amount of PICP (procollagen type I C-peptide) by using a collagen measuring kit. The standard solution contained in the collagen measuring kit was diluted with a sample and absorption at 450 nm was measured to construct a standard concentration curve (see the following Table 2).
To an antibody-coated microtiter plate comprising a primary collagen antibody applied unifomrily thereto, 100 μl of an antibody-POD conjugate solution and the cell supernatant collected as described above were added, followed by incubation at 37° C. for 3 hours, to induce an antigen-antibody reaction. Then, the reaction mixture was subjected to washing and color developing. After the reaction, the reaction mixture developed a yellow color, wherein the yellowness depended on reaction degrees. Also, 96 well plates developing a yellow color were determined at 450 nm by using a microtiter plate reader.

[3] = test system: keratinocytes; test: Differentiation of keratinocytes (western blotting of involucrin and keratin-1); assay type: cell-based; conditions: 10 μM, 48 hours, FIG. 2
Experimental: In order to evaluate the effect of the above compound according to the present invention upon differentiation of keratinocytes, each of K6PC4, K6PC-5, K6PC-7 and K6PC-9 was dissolved in DMSO at a concentration of 10 μM and used as sample. Evaluation was performed by using the western blotting method. As differentiation markers, involucrin and keratine-1, which were differentiation markers of keratinocytes, were measured. Next, 48 hours after the treatment of samples, the culture solution was discarded and the cells were washed with PBS and collected by filtering. The collected cells were washed again and subjected to centrifugal separation to remove supernatant. The cells were dissolved in a solvent and subjected to centrifugal separation at 12,000 rpm for 10 minutes, thereby removing cell membranes, etc. Protein concentration was determined by the Bradford method. Proteins were separated by mini gel type SDS-PAGE (polyacrylamide gel electrohoresis) and transferred to a PVDF (polyvinylidene fluoride) membrane at 100V for 1 hour, so that gel-like proteins were subjected to blotting with a transfer membrane. Then, the membrane was colored with Ponceau S solution to determine whether transfer was accomplished or not. The membrane was blocked by using TTBS (TBS+0.1% Tween 20) solution containing 5% non-fat dried milk. In order to check the amount of involucrin as differentiation marker of keratinocytes, primary antibody involucrin (Neomarkers Co.) was diluted at a ratio of about 1/200 to 1.400, and keratin-1 (Covance Co.) was diluted at a ratio of about 1/1000. Reactions were performed overnight at 4° C. As secondary antibody, anti-mouse IgG and anti-rabbit IgG combined with horseradish peroxidase (HRP) was diluted at a ratio of 1:2000. Then, the secondary antibody was bonded to the primary antibody by making them react at room temperature for 1 hour. The membrane was washed with TTBS three times, reacted with an ECL substrate (Amersham Co.) for 1-3 minutes, and exposed to X-ray films.

[4] = test system: RBL-2H3 cell line; test: Intracellular calcium movement (fura-2 fluorescence); assay type: cell-based; conditions: RBL-2H3 cells, fura-2, FIGS. 1a to 1d
Experimental: First, the following experiment for calcium movement was performed in order to determine whether the above sphingosine kinase activator compounds activate sphingosine-1-phosphate, so as to cause intracellular calcium movement, which is a typical activity specific to sphingosine-1-phosphate.
The sphingosine kinase activator compounds were determined for capability of inducing intracellular calcium movement by using a RBL-2H3 cell line, which is one of the typical cell lines showing intracellular calcium movement. The cells are cultured by using an RPMI 1640 culture medium and the cells were washed simultaneously with removal of the medium. Then, 10 μM of fura-2/Am and 250 μl M of sulfinpyrazone were added thereto, followed by incubation for 30 minutes. Cell pellets were obtained by centrifugal separation and the cell pellets were dispersed in Ca^2+-free Locke's solution. The dispersion was divided into a unit of 1×10^6 cells for use in treating samples. Next, the cells were introduced into a cuvet of a fluorescence microscope, each sphingosine kinase activator compound was added thereto, and intracellular calcium movement was observed by the fluorescence microscope (RF-5310PC, Spectrofluoro photometer, SHIMADZU). When intracellular calcium ions are detected, they cause fluorescence by bonding with fura-2. Therefore, a degree of calcium movement caused by a sample was evaluated by calculating a difference between the measurement of fura-2 ([…]) bonded with calcium and that of non-bonded fura-2 ([…]).

[5] = test system: hairless mouse; assay type: in vivo; conditions: mouse, in vivo
From the text: To evaluate effect of the sphingosine kinase activator upon inhibition of steroid side effects, a steroid was applied to a hairless mouse. Typically, side effects caused by long-term or excessive dose of steroids include skin atrophy expressed by thinning of skin and weakening of skin functions, and a rebound phenomenon including reoccurrence of conditions caused by stopping use of steroids. It is reported that the main cause for such side effects is inhibition of fibroblast activity and a decrease in collagen production (S. Hammer et al., J. Cell. Biochem, 91, 840-851, 2004), Therefore, it is expected that the compound according to the present invention enhances collagen synthesis and differentiation of keratinocytes, and thus inhibits such side effects caused by steroids. To perform a test, a steroid, i.e. 0.05% chlobetason-17-propionate, and […]-5 according to the present invention (1.0% in PEG:EtOH=7:3) were applied to a hairless mouse and changes in the skin were observed. The treating agents were applied to the back of a hairless mouse 9 times per day and the tissue was collected. Then, the epidermis and dermis were observed by carrying out the H & E staining method (hematoxylin and eosin staining) known to one skilled in the art.

T1 sequence (Q8CI15 1-381 isoform Q8CI15-3): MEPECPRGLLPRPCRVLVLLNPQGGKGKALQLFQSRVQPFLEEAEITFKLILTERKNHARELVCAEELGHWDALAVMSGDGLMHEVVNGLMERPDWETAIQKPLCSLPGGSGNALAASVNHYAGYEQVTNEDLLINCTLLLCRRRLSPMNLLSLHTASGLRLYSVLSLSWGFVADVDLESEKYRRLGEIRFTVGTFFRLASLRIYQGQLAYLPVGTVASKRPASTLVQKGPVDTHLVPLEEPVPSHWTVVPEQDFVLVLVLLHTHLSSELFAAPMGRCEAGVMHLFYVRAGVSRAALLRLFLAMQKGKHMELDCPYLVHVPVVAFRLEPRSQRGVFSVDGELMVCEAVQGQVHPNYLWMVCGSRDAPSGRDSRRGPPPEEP

CCCCCCCC(=O)C(CCCCCC)C(=O)NCC(O)CO (stereo not drawn) [K6PC-4, N-(2,3-dihydroxypropyl)-2-hexyl-3-oxo-decanamide]
C17-SIP Production [1]: 67.69 pmol/min/mg | increase in production of sphingosine-1-phosphate [1]: about 30% | Amount of PICP produced in fibroblasts (average ± SEM) ([2]; 0.3 μg/ml): 62.01 ± 2.5 | Amount of PICP produced in fibroblasts (average ± SEM) ([2]; 1.0 μg/ml): 80.51 ± 4.4 | collagen synthesis increase as compared to the non-treated control [2]: about 1.7 times | expression of differentiation markers (involucrin, keratin-1) [3]: expressed the differentiation markers | intracellular calcium movement [4]: caused intracellular calcium movement

CCCCCCCC(=O)C(CCCCCC)C(=O)NC(C)(CO)CO (stereo not drawn) [K6PC-7, N-(2-methyl-1,3-dihydroxyisopropyl)-2-hexyl-3-oxo-decanamide]
C17-SIP Production [1]: 75.51 pmol/min/mg | increase in production of sphingosine-1-phosphate [1]: about 46% | Amount of PICP produced in fibroblasts (average ± SEM) ([2]; 0.3 μg/ml): 90.3 ± 12.5 | Amount of PICP produced in fibroblasts (average ± SEM) ([2]; 1.0 μg/ml): 87.3 ± 14.9 | collagen synthesis increase as compared to the non-treated control [2]: about 1.9 times | expression of differentiation markers (involucrin, keratin-1) [3]: expressed the differentiation markers | intracellular calcium movement [4]: caused intracellular calcium movement

CCCCCCCC(=O)C(CCCCCC)C(=O)NCCO (stereo not drawn) [K6PC-9, N-ethanol-2-hexyl-3-oxo-decanamide]
C17-SIP Production [1]: 66.72 pmol/min/mg | increase in production of sphingosine-1-phosphate [1]: about 30% | Amount of PICP produced in fibroblasts (average ± SEM) ([2]; 0.3 μg/ml): 95.0 ± 5.2 | Amount of PICP produced in fibroblasts (average ± SEM) ([2]; 1.0 μg/ml): 86.7 ± 8.2 | collagen synthesis increase as compared to the non-treated control [2]: about 2.0 times | expression of differentiation markers (involucrin, keratin-1) [3]: expressed the differentiation markers | intracellular calcium movement [4]: caused intracellular calcium movement

CCCCCCCCCCCCCC(=O)O[C@@H]1[C@@H](C)[C@@]2(O)[C@@H](C=C(CO)C[C@]3(O)C(=O)C(C)=C[C@@H]23)[C@@H]2C(C)(C)[C@]12OC(C)=O [PMA, phorbol microstate acetate, reference compound]
C17-SIP Production [1]: 76.76 pmol/min/mg | increase in production of sphingosine-1-phosphate [1]: about 48%

CCC(=O)O[C@]1(C(=O)CCl)[C@@H](C)C[C@H]2[C@@H]3CCC4=CC(=O)C=C[C@]4(C)[C@@]3(F)[C@@H](O)C[C@@]21C [chlobetason-17-propionate, reference compound]
changes in epidermis and dermis (steroid applied alone) [5]: significant thinning of the epidermis and abnormal changes in the dermis
